Patent US20260337225A1, “SMALL PEPTIDE AND USE THEREOF IN MUCOSAL REPAIR” (FORREST BIO-PHARM (SHENZHEN) CO., LTD., priority 2022, published 2026)
Several values for one entry are separate records, joined by “and”; a condition that tells them apart may be missing. Equal entries are not always repeated. No end group written: not given here.

Legend:
[1] = test system: mouse model of acute gastric ulcer; test: Mouse model of acute gastric ulcer (anhydrous ethanol); assay type: in vivo
Procedure: In this embodiment, the function of the small peptides obtained in Embodiment 2 was validated using a mouse model of acute gastric ulcer.
Control group (model group): A mouse mode of acute gastric ulcer was constructed using anhydrous ethanol (0.1 mL/10 g) (referring to the literature of Study on Action of kangfuxin Solution on Experimental Gastric ulcer [J]. Chinese Traditional Patent Medicine, 2001, 23(2): 122-124. DOI: 10.3969/j.issn.1001-1528.). After modeling, the mice were administered with an equal volume of saline.
Blank group: The mice were administered with an equal volume of saline.
Drug treatment groups: A mouse mode of acute gastric ulcer was constructed by treating the mouse with anhydrous ethanol (0.1 mL/10 g). At 2 h, 12 h, and 22 h after modeling, the mice were administered with the rice polypeptide mixture (50 mg/kg) as the mixture group, small peptide P1 (0.5 mg/kg) as the P1 group, and small peptide P2 (0.5 mg/kg) as the P2 group, respectively.
Each group consisted of 8 mice. After 24 h of modeling, the mice were sacrificed, to extract the gastric tissue, and observe changes in bleeding points and ulcer area via gastric tissue dissection.

[2] = test system: rat model of chronic gastric ulcer; test: Rat model of chronic gastric ulcer (anhydrous ethanol followed by aspirin); assay type: in vivo
Procedure: The function of the small peptides obtained in Embodiment 2 was validated in the present embodiment by using a rat model of chronic gastric ulcer.
Control group (model group): A rat model of chronic gastric ulcer model was constructed by intragastric administration of anhydrous ethanol (1 mL/200 g), followed by intragastric administration of 200 mg/kg aspirin 2 h later. The rats were administered with aspirin once daily for 4 days. At day 5, the rats were administered with an equal volume of saline.
Blank group: The rats were administered with an equal volume of saline.
Drug treatment groups: A rat model of chronic gastric ulcer was constructed as above-mentioned. At day 5, the rats were respectively administered with the rice polypeptide mixture (50 mg/kg), small peptide P1 (0.5 mg/kg), or small peptide P2 (0.5 mg/kg) twice daily for 3 days. On day 4, the rats were sacrificed and their gastric necropsy was performed.
Positive control group (omeprazole 2.6 mg/kg): A rat model of chronic gastric ulcer was constructed as above. At day 5, the rats were administered with omeprazole (2.6 mg/kg) twice daily for 3 days. On day 4, The rats were sacrificed and their gastric necropsy was performed.
Each group consisted of 10 rats. After 24 h of modeling, the rats were sacrificed to extract the gastric tissue, for measuring gastric pH, and observing changes in ulcer area via gastric tissue dissection. Liver and kidney tissues were collected for pathological section observation to assess drug safety.

[3] = test system: normal human hepatic parenchymal L-02 cells; test: Hepatotoxicity: cytotoxicity in L-02 cells by CCK-8 assay; assay type: cell-based; settings: 10-200 μg/mL, 24 h, in words
Procedure: Referring to the method from a literature (Determination of emodin in L-02 cells and cell culture media with liquid chromatography-mass spectrometry: Application to a cellular toxicokinetic study. J Pharm Biomed Anal. 2012; 71:71-78), normal human hepatic parenchymal L-02 cells (obtained from Shanghai Cell Bank) were seeded into 96-well plates and treated with small peptides P1 and P2 at concentrations of 0 μg/mL, 10 μg/mL, 20 μg/mL, 50 μg/mL, 100 μg/mL, and 200 μg/mL. After 24-hour stimulation, the cytotoxicity was assessed by Cell Counting Kit-8 (CCK-8) assay.

[4] = test system: normal human kidney-2 cells (HK-02, HK-2); test: Nephrotoxicity: cytotoxicity in HK-2 cells by CCK-8 assay; assay type: cell-based; settings: 10-200 μg/mL, 24 h, in words
Procedure: Referring to the method from a literature (Sinomenine improve diabetic nephropathy by inhibiting fibrosis and regulating the JAK2/STAT3/SOCS1 pathway in streptozotocin-induced diabetic rats. Life Sci. 2021; 265:118855), normal human kidney-2 cells (HK-02, HK-2) (Shanghai Cell Bank) were seeded into 96-well plates and administered with small peptides P1 and P2 at concentrations of 0 μg/mL, 10 μg/mL, 20 μg/mL, 50 μg/mL, 100 μg/mL, and 200 μg/mL. After 24-hour stimulation, the cytotoxicity was assessed by Cell Counting Kit-8 (CCK-8) assay.

[5] = Animal safety observation: rat body weight; assay type: in vivo; settings: for Rat body weight: 1000 mg/kg daily, intragastric gavage, individual rats, Rat 1-7 = c1-c7, 1000 mg/kg
Procedure: (§1) The rats were administered with the small peptides via intragastric gavage at doses of 500 mg/kg and 1000 mg/kg daily for 14 days. Changes in body weight were recorded. On day 14, the rats were sacrificed to measure alaninetransaminase (ALT) activity and blood urea nitrogen (BUN) levels in rat serum for assessing whether there was hepatotoxicity and nephrotoxicity in rats.

Rat liver = test: Animal safety observation: rat liver injury (serum alaninetransaminase activity); assay type: in vivo; settings: 14 days; for Alaninetransaminase Activity, Average / Alaninetransaminase Activity: intragastric gavage, rat serum; for Alaninetransaminase Activity, Average: average of 6 rats, saline average P1 35.83333, P2 30.83333; for Alaninetransaminase Activity: individual rats (Rat 1-6)
Procedure: as §1

Rat kidney = test: Animal safety observation: rat kidney injury (serum blood urea nitrogen levels); assay type: in vivo; settings: 14 days; for Blood Urea Nitrogen Levels: intragastric gavage, rat serum, individual rats (Rat 1-6)
Procedure: as §1

mucosal repair = test: Screening of active monomers for mucosal repair effects; settings: repeated experiments and screening; in words
From the text: The inventors observed the active monomers in the polypeptide mixture of Polimi-1 rice variety by mass spectrometry analysis of the polypeptides from various ordinary rice varieties and Polimi-1 rice variety. The small peptides identical to ordinary rice varieties and with high levels in ordinary rice varieties were excluded by a method of exclusion. Finally, the small peptides with higher levels in Polimi-1 rice variety and lower levels in other ordinary rice varieties were selected for further study, as well as those with higher levels in Polimi-1 rice variety and absent in other ordinary rice varieties. Since peptides with molecular weights below 1500 Daltons were extracted from the mixed polypeptide mixture previously obtained, other peptides above this threshold were excluded.

[6] = 500 and 1000 mg/kg daily, rats, in words

Sequence: GPSGPELRG [Small peptide P2, GPSGPELRG]
- Ulcer index ([1]; 0.5 mg/kg at 2 h, 12 h and 22 h after modeling, 8 mice, ratio of ulcer area to gastric mucosal tissue area, Control group 58.3 ± 10.1): 7.1 ± 5.5%
- Ulcer inhibition rate ([1]; 0.5 mg/kg at 2 h, 12 h and 22 h after modeling, percentage reduction in ulcer area compared to the Control group): 87.8%
- result compared to the mixture group ([1]; 0.5 mg/kg versus mixture 50 mg/kg, in words): better results than the mixture in larger dose
- anti-ulcer effects ([1]; 0.5 mg/kg, in words): excellent anti-ulcer effects
- Ulcer index ([2]; 0.5 mg/kg twice daily for 3 days, 10 rats, ratio of ulcer area to gastric mucosal tissue area, Control group 40.5 ± 5.3): 5.5 ± 3.7%
- Ulcer inhibition rate ([2]; 0.5 mg/kg twice daily for 3 days, percentage reduction in ulcer area compared to the Control group): 86.4%
- anti-ulcer effects ([2]; P1, P2 0.5 mg/kg, mixture 50 mg/kg, in words): exhibit anti-ulcer effects
- P versus Positive control group ([2]; anti-ulcer effects compared to omeprazole 2.6 mg/kg, P1, P2 0.5 mg/kg, mixture 50 mg/kg): > 0.05
- viability of normal human liver cells L-02 [3]: no effect
- hepatotoxicity ([3]; L-02 cells): no hepatotoxicity
- viability of normal human kidney cells HK-02 (HK-2) [4]: no effect
- nephrotoxicity ([4]; HK-2 cells): no nephrotoxicity
- Rat body weight ([5]; Day 1): 208 g and 215 g and 219 g and 218 g and 217 g (2×) and 214 g
- Rat body weight ([5]; Day 2): 210 g and 216 g (2×) and 220 g and 221 g and 223 g and 218 g
- Rat body weight ([5]; Day 3): 211 g and 220 g and 221 g and 222 g and 225 g and 210 g and 219 g
- Rat body weight ([5]; Day 4): 213 g and 224 g
- Rat body weight ([5]; Day 5): 214 g and 225 g (2×) and 229 g (2×) and 221 g and 226 g
- Rat body weight ([5]; Day 6): 214 g and 226 g and 225 g and 231 g and 230 g and 224 g and 229 g
- Rat body weight ([5]; Day 7): 215 g and 226 g and 230 g (2×) and 237 g and 232 g and 225 g
- Rat body weight ([5]; Day 8): 216 g and 229 g (2×) and 233 g and 236 g and 234 g and 232 g
- Rat body weight ([5]; Day 9): 221 g and 230 g and 235 g (2×) and 239 g and 234 g and 231 g
- Rat body weight ([5]; Day 10): 224 g and 231 g and 238 g and 240 g and 239 g and 235 g and 237 g
- Rat body weight ([5]; Day 11): 225 g and 234 g and 239 g and 242 g (2×) and 238 g and 240 g
- Rat body weight ([5]; Day 12): 230 g and 235 g and 239 g and 244 g (2×) and 245 g and 240 g
- Rat body weight ([5]; Day 13): 231 g and 238 g and 240 g and 245 g (2×) and 249 g and 241 g
- Rat body weight ([5]; Day 14): 235 g and 239 g and 241 g and 248 g and 250 g and 244 g (2×)
- Rat body weight ([5]; Day 15): 238 g and 241 g and 242 g and 250 g and 252 g and 245 g (2×)
- effects on rat body weight ([5]; daily intragastric gavage for 14 days, in words): minimal effects
- Alaninetransaminase Activity, Average (Rat liver; 500 mg/kg daily): 29.33 IU/L
- Alaninetransaminase Activity (Rat liver; 500 mg/kg daily): 34 IU/L (2×) and 42 IU/L and 17 IU/L and 21 IU/L and 28 IU/L
- Alaninetransaminase Activity, Average (Rat liver; 1000 mg/kg daily): 36.67 IU/L
- Alaninetransaminase Activity (Rat liver; 1000 mg/kg daily): 29 IU/L and 43 IU/L and 45 IU/L and 33 IU/L and 32 IU/L and 38 IU/L
- hepatotoxicity (Rat liver; [6]): without hepatotoxicity
- Blood Urea Nitrogen Levels (Rat kidney; 500 mg/kg daily): 19 mg/dL and 37 mg/dL and 32 mg/dL and 34 mg/dL and 42 mg/dL and 33 mg/dL
- Blood Urea Nitrogen Levels (Rat kidney; 1000 mg/kg daily): 23 mg/dL and 29 mg/dL and 35 mg/dL and 39 mg/dL and 43 mg/dL and 44 mg/dL
- nephrotoxicity (Rat kidney; [6]): without hepatotoxicity and nephrotoxicity
- mucosal repair effects (mucosal repair): found to have mucosal repair effects
